{"source": "ChEMBL document CHEMBL4837226", "about": "“Discovery of pyrrole derivatives for the treatment of glioblastoma and chronic myeloid leukemia” (Eur J Med Chem, 2021)", "key": {"Tubulin (Homo sapiens) [1]": {"molecular_target": "T1, Tubulin (Homo sapiens) (UniProt P68371+Q9H4B7+P0DPH7+P68366+Q13509+Q71U36+P04350+Q3ZCM7+P07437+P68363+Q9BQE3+Q6PEY2+Q13885+Q9BVA1+Q9BUF5)", "test": "Inhibition of [3H]Colchicine binding to tubulin (unknown origin) at 5 uM measured after 10 mins by DEAE-Cellulose filter method relative to control", "format": "protein-complex assay"}, "Tubulin": {"molecular_target": "Tubulin", "test": "Inhibition of tubulin polymerization (unknown origin) assessed as reduction in tubulin assembly preincubated for 15 mins followed by GTP addition by spectrophotometric method", "format": "protein-complex assay, Homo sapiens"}, "Tubulin (Homo sapiens) [2]": {"molecular_target": "T1, Tubulin (Homo sapiens)", "test": "Inhibition of [3H]Colchicine binding to tubulin (unknown origin) at 1 uM measured after 10 mins by DEAE-Cellulose filter method relative to control", "format": "protein-complex assay"}, "[3]": {"test": "Cytotoxicity against human U343MG cells assessed as cell growth inhibition by measuring maximum efficacy measured after 72 hrs by MTS colorimetric assay relative to control", "format": "functional", "details": "U-343MG"}, "U-87 MG [4]": {"test_system": "U-87 MG", "test": "Cytotoxicity against human U-87MG cells assessed as cell growth inhibition by measuring maximum efficacy measured after 48 hrs by MTS colorimetric assay relative to control", "format": "functional, U-87MG ATCC"}, "U-87 MG [5]": {"test_system": "U-87 MG", "test": "Antitumor activity against human U-87MG cells xenografted in BALB/c nu/nu mouse assessed as reduction in tumor volume at 25 mg/kg, ip administered every 2 days for 35 days", "format": "functional, organism-based", "details": "U-87MG ATCC, time 35.0 day"}, "U-87 MG [6]": {"test_system": "U-87 MG", "test": "Antitumor activity against human U-87MG cells xenografted in BALB/c nu/nu mouse assessed as reduction in tumor weight at 25 mg/kg, ip administered every 2 days for 35 days", "format": "functional, organism-based", "details": "U-87MG ATCC, time 35.0 day"}, "U-87 MG [7]": {"test_system": "U-87 MG", "test": "Antitumor activity against human U-87MG cells xenografted in BALB/c nu/nu mouse assessed as reduction in glioma tumors at 25 mg/kg, ip administered every 2 days for 35 days by hematoxylin and eosin staining based assay", "format": "functional, organism-based", "details": "U-87MG ATCC, time 35.0 day"}, "U-87 MG [8]": {"test_system": "U-87 MG", "test": "Antitumor activity against human U-87MG cells xenografted in BALB/c nu/nu mouse assessed as reduction in Ki67 expression at 25 mg/kg, ip administered every 2 days for 35 days by DAPI staining based immunofluorescence analysis", "format": "functional, organism-based", "details": "U-87MG ATCC, time 35.0 day"}, "U-87 MG [9]": {"test_system": "U-87 MG", "test": "Antitumor activity against human U-87MG cells xenografted in BALB/c nu/nu mouse assessed as reduction in CD31 marker expression at 25 mg/kg, ip administered every 2 days for 35 days by DAPI staining based immunofluorescence analysis", "format": "functional, organism-based", "details": "U-87MG ATCC, time 35.0 day"}, "U-87 MG [10]": {"test_system": "U-87 MG", "test": "Antitumor activity against human U-87MG cells xenografted in BALB/c nu/nu mouse assessed as reduction in Bcl2 protein expression at 25 mg/kg, ip administered every 2 days for 35 days by DAPI staining based immunofluorescence analysis", "format": "functional, organism-based", "details": "U-87MG ATCC, time 35.0 day"}, "U-87 MG [11]": {"test_system": "U-87 MG", "test": "Antitumor activity against human U-87MG cells xenografted in BALB/c nu/nu mouse assessed as reduction in GFAP expression at 25 mg/kg, ip administered every 2 days for 35 days by DAPI staining based immunofluorescence analysis", "format": "functional, organism-based", "details": "U-87MG ATCC, time 35.0 day"}, "U-87 MG [12]": {"test_system": "U-87 MG", "test": "Antitumor activity against human U-87MG cells xenografted in BALB/c nu/nu mouse assessed as reduction in CD133 marker expression at 25 mg/kg, ip administered every 2 days for 35 days by DAPI staining based immunofluorescence analysis", "format": "functional, organism-based", "details": "U-87MG ATCC, time 35.0 day"}, "U-87 MG [13]": {"test_system": "U-87 MG", "test": "Antitumor activity against human U-87MG cells xenografted in BALB/c nu/nu mouse assessed as increase in activated caspase-3 expression at 25 mg/kg, ip administered every 2 days for 35 days by DAPI staining based immunofluorescence analysis", "format": "functional, organism-based", "details": "U-87MG ATCC, time 35.0 day"}, "KU812 cell line": {"test_system": "KU812 cell line", "test": "Cytotoxicity against Bcr-Abl expressing human KU812 cells assessed as cell growth inhibition measured after 48 hrs by MTT assay", "format": "functional, cell-based", "details": "KU812, 48 h"}, "KBM5 [14]": {"test_system": "KBM5", "test": "Cytotoxicity against Imatinib mesylate sensitive wild-type human KBM5 cells assessed as cell growth inhibition measured after 48 hrs by MTT assay", "format": "functional, cell-based", "details": "KBM5, 48 h"}, "KBM5 [15]": {"test_system": "KBM5", "test": "Cytotoxicity against imatinib mesylate resistant wild-type human KBM5 cells expressing T315I mutant assessed as cell growth inhibition measured after 48 hrs by MTT assay", "format": "functional, cell-based", "details": "KBM5, 48 h"}, "KBM5 [16]": {"test_system": "KBM5", "test": "Potentiation of ponatinib-induced mitochondrial membrane depolarization in human KBM5 cells expressing T315I mutant at 5 nM measured upto 48 hrs by JC-1 staining based flow cytometry analysis", "format": "functional, cell-based", "details": "time hrs <=48"}, "KBM5 [17]": {"test_system": "KBM5", "test": "Induction of apoptosis in human KBM5 cells expressing T315I mutant assessed as decrease in […] expression at 1 to 10 uM measured after 24 hrs by Western blot analysis", "format": "functional, cell-based", "details": "dose 1-10 µM"}, "KBM5 [18]": {"test_system": "KBM5", "test": "Induction of apoptosis in human KBM5 cells expressing T315I mutant assessed as increase in Bcr-Abl expression at 1 to 10 uM measured after 24 hrs by western blot analysis", "format": "functional, cell-based", "details": "dose 1-10 µM"}, "SW480": {"test_system": "SW480", "test": "Cytotoxicity against human SW480 cells assessed as cell growth inhibition measured after 48 hrs by XTT dye based assay", "format": "functional", "details": "SW480, 48 h"}, "[19]": {"molecular_target": "T2, DNA topoisomerase 1 (Homo sapiens) (UniProt P11387)", "T2 sequence (whole entry)": "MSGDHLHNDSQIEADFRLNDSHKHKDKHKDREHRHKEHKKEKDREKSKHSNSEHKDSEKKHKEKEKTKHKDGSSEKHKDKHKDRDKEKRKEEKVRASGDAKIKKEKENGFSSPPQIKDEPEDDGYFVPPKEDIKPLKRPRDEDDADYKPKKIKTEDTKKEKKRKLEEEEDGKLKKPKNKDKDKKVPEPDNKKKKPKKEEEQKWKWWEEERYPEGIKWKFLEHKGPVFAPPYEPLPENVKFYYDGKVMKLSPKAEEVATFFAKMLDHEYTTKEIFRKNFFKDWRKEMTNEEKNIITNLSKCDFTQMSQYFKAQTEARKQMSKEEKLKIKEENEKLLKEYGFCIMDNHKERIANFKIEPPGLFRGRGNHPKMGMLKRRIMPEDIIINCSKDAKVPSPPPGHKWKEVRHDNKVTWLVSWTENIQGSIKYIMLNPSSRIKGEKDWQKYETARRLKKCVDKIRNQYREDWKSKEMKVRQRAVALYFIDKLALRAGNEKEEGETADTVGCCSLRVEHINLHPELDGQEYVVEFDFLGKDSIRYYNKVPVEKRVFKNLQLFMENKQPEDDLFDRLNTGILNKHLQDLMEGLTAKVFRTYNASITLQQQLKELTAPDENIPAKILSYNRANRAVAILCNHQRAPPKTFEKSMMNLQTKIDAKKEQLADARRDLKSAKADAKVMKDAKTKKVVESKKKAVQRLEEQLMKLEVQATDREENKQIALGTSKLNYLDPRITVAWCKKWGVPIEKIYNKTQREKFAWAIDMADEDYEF", "test": "Inhibition of human recombinant topoisomerase I using supercoiled pHOT1 plasmid DNA as substrate at 10 to 100 uM measured after 1 hr by agarose gel electrophoresis analysis", "details": "dose 10-100 µM"}, "[20]": {"molecular_target": "T3, DNA topoisomerase II (Homo sapiens) (UniProt P11388+Q02880)", "test": "Inhibition of human topoisomerase II assessed as reduction in decantenation using kinetoplast DNA as a substrate at 10 to 50 uM measured after 1 hr by ethidium bromide staining based agarose gel electrophoresis analysis", "format": "protein assay", "details": "dose 10-50 µM"}, "[21]": {"molecular_target": "T3, DNA topoisomerase II (Homo sapiens)", "test": "Inhibition of human topoisomerase II assessed as reduction in decantenation using kinetoplast DNA as a substrate at 100 uM measured after 1 hr by ethidium bromide staining based agarose gel electrophoresis analysis relative to control", "format": "protein assay"}}, "note": "The source made the active and inactive calls. The rule behind the calls is not given here."}
{"smiles": "COc1cc(C(=O)c2cn(-c3ccc(C)cc3)cc2-c2ccsc2)cc(OC)c1OC", "values": [{"measurement": "inhibition", "setting": "Tubulin (Homo sapiens) [1]", "result": 90, "unit": "%"}, {"measurement": "IC50", "setting": "Tubulin", "result": 390, "unit": "nM"}, {"measurement": "inhibition", "setting": "Tubulin (Homo sapiens) [2]", "result": 71, "unit": "%"}, {"measurement": "Emax", "setting": "[3]", "result": 48.5, "unit": "%"}, {"measurement": "Emax", "setting": "U-87 MG [4]", "result": 55.6, "unit": "%"}, {"measurement": "Activity", "setting": "U-87 MG [5]", "result": "Active"}, {"measurement": "Activity", "setting": "U-87 MG [6]", "result": "Active"}, {"measurement": "Activity", "setting": "U-87 MG [7]", "result": "Active"}, {"measurement": "Activity", "setting": "U-87 MG [8]", "result": "Active"}, {"measurement": "Activity", "setting": "U-87 MG [9]", "result": "Active"}, {"measurement": "Activity", "setting": "U-87 MG [10]", "result": "Active"}, {"measurement": "Activity", "setting": "U-87 MG [11]", "result": "Active"}, {"measurement": "Activity", "setting": "U-87 MG [12]", "result": "Active"}, {"measurement": "Activity", "setting": "U-87 MG [13]", "result": "Active"}, {"measurement": "IC50", "setting": "KU812 cell line", "result": 9.5, "unit": "nM"}, {"measurement": "IC50", "setting": "KBM5 [14]", "result": 8.2, "unit": "nM"}, {"measurement": "IC50", "setting": "KBM5 [15]", "result": 8.8, "unit": "nM"}, {"measurement": "Activity", "setting": "KBM5 [16]", "result": "Active"}, {"measurement": "Activity", "setting": "KBM5 [17]", "result": "Active"}, {"measurement": "Activity", "setting": "KBM5 [18]", "result": "Active"}, {"measurement": "IC50", "setting": "SW480", "result": 656, "unit": "nM"}, {"measurement": "inhibition", "setting": "[19]", "result": "inactive"}, {"measurement": "inhibition", "setting": "[20]", "result": "inactive"}, {"measurement": "inhibition", "setting": "[21]", "result": 100, "unit": "%"}]}
